“And” between values parts separate entries of the source, which are not always exact repeats. Identical values can stand only once.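 Growth conditions: 96-well plates. Treatment: test compound, 48 hours, 5 concentrations. Analysis: linear interpolation between bracketing concentrations; unreached endpoints set to highest concentration. GI50 = concentration required for 50% inhibition of growth. At the TGI there is no net growth.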
Assays:
Experiment in all cases: DTP human tumour cell line panel, 48 h
[1] = test system: CCRF-CEM leukemia
[2] = test system: SK-OV-3 ovarian
[3] = test system: MALME-3M melanoma
[4] = test system: SF-295 CNS
[5] = test system: CAKI-1 renal
[6] = test system: SK-MEL-2 melanoma
[7] = test system: OVCAR-4 ovarian
[8] = test system: UO-31 renal
[9] = test system: NCI-H23 lung
[10] = test system: HT29 colon
[11] = test system: NCI/ADR-RES ovarian
[12] = test system: T-47D breast
[13] = test system: SK-MEL-28 melanoma
[14] = test system: MDA-MB-435
[15] = test system: 786-0 renal
[16] = test system: ACHN renal
[17] = test system: SN12C renal
[18] = test system: SF-268 CNS
[19] = test system: HCT-116 colon
[20] = test system: UACC-257 melanoma
[21] = test system: NCI-H460 lung
[22] = test system: U251 CNS
[23] = test system: IGROV1 ovarian
[24] = test system: SK-MEL-5 melanoma
[25] = test system: HCT-15 colon
[26] = test system: OVCAR-8 ovarian
[27] = test system: SNB-75 CNS
[28] = test system: MDA-MB-231 breast
[29] = test system: NCI-H522 lung
[30] = test system: LOX IMVI melanoma
[31] = test system: SW-620 colon
[32] = test system: TK-10 renal
[33] = test system: HL-60(TB) leukemia
[34] = test system: PC-3 prostate
[35] = test system: HCC-2998 colon
[36] = test system: A549 NSCLC
[37] = test system: EKVX NSCLC
[38] = test system: OVCAR-3 ovarian
[39] = test system: HOP-62 NSCLC
[40] = test system: SNB-19 CNS
[41] = test system: BT-549 breast
[42] = test system: MOLT-4 leukemia
[43] = test system: DU-145 prostate
[44] = test system: SR leukemia
[45] = test system: SF-539 CNS
[46] = test system: RPMI-8226 leukemia
[47] = test system: K-562 leukemia
[48] = test system: KM12 colon
[49] = test system: OVCAR-5 ovarian
[50] = test system: NCI-H226 lung
[51] = test system: MCF7 breast
[52] = test system: RXF 393 renal

Cc1ccc(Nc2nccc(N(C)c3ccc4c(C)n(C)nc4c3)n2)cc1S(N)(=O)=O
GI50 [1]: 4.37 µM and 7.01 µM and 8.07 µM | TGI [1]: > 100 µM | GI50 [2]: 2.93 µM and 4.9 µM and 4.24 µM | TGI [2]: 29.6 µM and > 10 µM and > 100 µM | TGI [3]: > 74.4 µM | GI50 [4]: 3.57 µM and 2.78 µM and 9.92 µM | TGI [4]: > 100 µM | GI50 [5]: 1.43 µM and 4.39 µM | TGI [5]: > 100 µM | GI50 [6]: 4.67 µM and 1.46 µM and 4.62 µM | GI50 [7]: 3.43 µM and 0.681 µM and 4.42 µM | TGI [7]: > 100 µM | GI50 [8]: 3.13 µM and 0.539 µM and 4.67 µM | TGI [8]: > 100 µM | GI50 [9]: 4.03 µM and 2.92 µM and 6.49 µM | TGI [9]: > 100 µM and > 10 µM and 93.1 µM | GI50 [10]: 4.03 µM and 0.49 µM and 4.68 µM | TGI [10]: > 100 µM | GI50 [11]: 45.8 µM and 23.1 µM | TGI [11]: > 100 µM | GI50 [12]: 3.91 µM and 1.58 µM and 3.98 µM | TGI [13]: > 100 µM and > 10 µM and 84.2 µM | GI50 [14]: 3.93 µM and 0.758 µM and 6.37 µM | TGI [14]: > 100 µM and > 10 µM and 34.4 µM | GI50 [15]: 4.03 µM and 2.8 µM and 5.96 µM | TGI [15]: > 100 µM | GI50 [16]: 4.08 µM and 3.12 µM and 4.98 µM | TGI [16]: > 100 µM | GI50 [17]: 3.77 µM and 2.65 µM and 6.38 µM | TGI [17]: > 100 µM | GI50 [18]: 5.26 µM and 3.17 µM and 9.96 µM | TGI [18]: > 100 µM | GI50 [19]: 3.49 µM and 1.7 µM and 5.44 µM | TGI [19]: > 100 µM | TGI [20]: > 10 µM and 51.5 µM | GI50 [21]: 4.48 µM and 2.76 µM and 6.34 µM | TGI [21]: > 100 µM | GI50 [22]: 3.35 µM and 0.95 µM and 8.12 µM | TGI [22]: > 100 µM | TGI [23]: > 100 µM | GI50 [24]: 2.41 µM | TGI [24]: 10.8 µM | GI50 [25]: 4.04 µM and 2.77 µM and 5.98 µM | TGI [25]: > 100 µM | GI50 [26]: 4.8 µM and 3.61 µM and 5.04 µM | TGI [26]: > 100 µM | GI50 [27]: 2.39 µM and 1.03 µM and 5.83 µM | GI50 [28]: 3.72 µM and 1.44 µM and 5.88 µM | TGI [28]: > 100 µM | GI50 [29]: 5.33 µM and 4 µM and 10.7 µM | TGI [29]: 39 µM and > 10 µM and 28 µM | GI50 [30]: 2.88 µM and 0.479 µM and 3.93 µM | TGI [31]: > 100 µM | GI50 [32]: 2.05 µM and 9.87 µM | TGI [32]: > 10 µM and 77.3 µM | GI50 [33]: 6.45 µM and 1.94 µM and 7.14 µM | TGI [33]: 30.6 µM and > 10 µM and 34 µM | GI50 [34]: 4.98 µM and 7.27 µM and 7.73 µM | TGI [34]: > 100 µM | GI50 [35]: > 100 µM and 29.8 µM | TGI [35]: > 100 µM | GI50 [36]: 4.63 µM and 3.58 µM and 10 µM | TGI [36]: > 100 µM | GI50 [37]: 3.22 µM and 4.11 µM and 15.2 µM | TGI [37]: > 100 µM | GI50 [38]: 7.93 µM and 6.42 µM and 15.2 µM | TGI [38]: > 100 µM and > 10 µM and 77.9 µM | GI50 [39]: 8.64 µM and 1.51 µM and 11.7 µM | TGI [39]: > 100 µM and > 10 µM and 42.5 µM | TGI [40]: > 100 µM | GI50 [41]: 1.7 µM and 1.46 µM and 5.02 µM | TGI [41]: 7.66 µM and > 10 µM and 36.6 µM | GI50 [42]: 4 µM and 2.26 µM and 5.27 µM | TGI [42]: 24 µM and > 10 µM and 47.1 µM | GI50 [43]: 5.21 µM and 5.4 µM and 11.5 µM | TGI [43]: > 100 µM | GI50 [44]: 4.08 µM and 3.49 µM and 5.95 µM | TGI [44]: > 100 µM and > 10 µM and 37.9 µM | GI50 [45]: 0.589 µM and 1.5 µM | GI50 [46]: 10.8 µM and 2.61 µM and 6.49 µM | TGI [46]: > 100 µM and > 10 µM and 31.6 µM | GI50 [47]: 3.05 µM and 0.454 µM and 4.21 µM | TGI [47]: > 100 µM | GI50 [48]: 5.01 µM and 2.6 µM and 5.56 µM | TGI [48]: > 100 µM and > 10 µM and 27 µM | GI50 [49]: 1.43 µM and 6.49 µM | TGI [49]: > 100 µM | GI50 [50]: 0.781 µM and 0.425 µM and 1.41 µM | TGI [50]: > 100 µM | GI50 [51]: 4.06 µM and 3.1 µM and 6.69 µM | TGI [51]: > 100 µM | GI50 [52]: 2.43 µM and 0.634 µM and 2.41 µM
